Where two headings read alike, the source gives them in different places.
Tests used:
in vitro = details: human, CC50 (μg/mL)
[1] = tested on: Staphylococcus aureus strain LMG15975; test: MIC by broth micro-dilution, AM3/PBS 1:1; assay type: cell-based
Method: (§1) At first (Table 1), MIC is determined by broth micro-dilution method. The test medium is Antibiotic Medium 3 (AM3; Difco Ltd) mixed with Phosphate Buffered Saline (PBS) in proportions 1:1. Selected MIC values are verified using cation-adjusted Mueller Hinton Broth (MHB; BD). Cell concentration of tested pathogen is adjusted to between 3 and 5×10^5 cells per ml. To verify cell concentration of tested pathogen, viable cell counts are performed directly after each MIC-test by dilution method with PBS as a dilution solvent. Cells are counted on the agar plates with 50% strength Vegetable Peptone Broth (50% VPB; Oxoid Ltd) after 16 to 20 h of incubation at 37° C.
(§2) Cells of pathogen suspended in test medium are distributed to the wells and the plates are incubated for 16 to 20 h at 37° C. Negative controls are wells with the test medium only and positive controls are wells with the pathogen in test medium. The MIC is defined as the lowest concentration of each compound with no visible growth of pathogen.
Example compounds of formula I were examined for antibacterial activity against the Gram-positive bacterium Staphylococcus aureus strain LMG15975 using the above described method (Table 1).

M. frederiksbergense = test: MIC by broth micro-dilution; assay type: cell-based; details: Table 4; read-out: MIC (μg/ml) M. frederiksbergense
Method: as §1, §2

Bacillus cereus = test: MIC by broth micro-dilution; assay type: cell-based; details: Table 4, read-out: MIC (μg/ml) B. cereus
Method: as §1, §2

[2] = Kong et al 2005; cited from earlier work
[3] = reference markers for Caco-2 assay; cited from earlier work

## CCCCCCCCCCC1CC(O)=C(C(=O)CC)C(=O)O1 (centres unmarked) [Ex. 10, 6-decyl-4-hydroxy-3-propionyl-5,6-dihydro-2H-pyran-2-one]
In vitro
  CC50 at 48 h: 60 µM
[1]; LMG15975, S. aureus LMG15975, Table 1, read-out: MIC
  MIC: 1.3 to 2.6 µM
[1]; LMG15975, S. aureus LMG15975, Table 1, read-out: MIC (μg/ml)
  MIC: 0.4 to 0.8 µg/mL
M. frederiksbergense
  MIC: ≤ 0.5 µg/mL
Bacillus cereus
  MIC: ≤ 1 µg/mL

## CCCCCCc1c(O)cc(CCCCC)oc1=O [pseudopyronine A]
[2]
  antibacterial activities: moderate to poor

## CCCCCCCc1cc(O)c(CCCCCC)c(=O)o1 [pseudopyronine B]
[2]
  antibacterial activities: moderate to poor

## Nc1nc2c(ncn2COCCO)c(=O)[nH]1 [Acyclovir]
[3]
  absorption in man (%): 30%

— patent publication US10471043B2, “Compounds and methods of treating bacterial infections” (ULTUPHARMA AB, priority 2015, dated 2019)
